# Results reported in the kinase profiling compilation of Christmann-Franck et al. (2016).
# Legend:
# Assay in all cases: KINOMEscan competition binding
# Conditions in all cases: compound 10.0 µM
# LIMK1 (human) = LIMK1 (human) (UniProt P53667)
# SRPK2 (human) = SRPK2 (human) (UniProt P78362)
# CDC42BPA (human) = CDC42BPA (human) (UniProt Q5VT25)
# EPHA8 (human) = EPHA8 (human) (UniProt P29322)
# MAP4K1 (human) = MAP4K1 (human) (UniProt Q92918)
# FGFR3 (human) = FGFR3 (human) (UniProt P22607)
# CDK14 (human) = CDK14 (human) (UniProt O94921)
# PAK3 (human) = PAK3 (human) (UniProt O75914)
# NTRK3 (human) = NTRK3 (human) (UniProt Q16288)
# [1] = tested on: EIF2AK4 KD2 (human), Q9P2K8 [S808G]
# MAP3K4 (human) = MAP3K4 (human) (UniProt Q9Y6R4)
# MAPK14 (human) = MAPK14 (human) (UniProt Q16539)
# DAPK3 (human) = DAPK3 (human) (UniProt O43293)
# SRPK1 (human) = SRPK1 (human) (UniProt Q96SB4)
# MAP3K10 (human) = MAP3K10 (human) (UniProt Q02779)
# MARK3 (human) = MARK3 (human) (UniProt P27448)
# MAPK3 (human) = MAPK3 (human) (UniProt P27361)
# HCK (human) = HCK (human) (UniProt P08631)
# YES1 (human) = YES1 (human) (UniProt P07947)
# BTK (human) = BTK (human) (UniProt Q06187)
# PIM2 (human) = PIM2 (human) (UniProt Q9P1W9)
# BRSK1 (human) = BRSK1 (human) (UniProt Q8TDC3)
# [2] = biological target: TYK2 JH1 catalytic (human) (UniProt P29597)
# GAK (human) = GAK (human) (UniProt O14976)
# TNK2 (human) = TNK2 (human) (UniProt Q07912)
# CSNK1A1L (human) = CSNK1A1L (human) (UniProt Q8N752)
# MAP4K3 (human) = MAP4K3 (human) (UniProt Q8IVH8)
# CAMK2B (human) = CAMK2B (human) (UniProt Q13554)
# LIMK2 (human) = LIMK2 (human) (UniProt P53671)
# PHKG2 (human) = PHKG2 (human) (UniProt P15735)
# BLK (human) = BLK (human) (UniProt P51451)
# CaMK1 (human) = CaMK1 (human) (UniProt Q14012)
# RPS6KA4 KD1 (human) = RPS6KA4 KD1 (human) (UniProt O75676)
# Sequence of CSNK1A1L (human) (Q8N752 whole entry, looked up): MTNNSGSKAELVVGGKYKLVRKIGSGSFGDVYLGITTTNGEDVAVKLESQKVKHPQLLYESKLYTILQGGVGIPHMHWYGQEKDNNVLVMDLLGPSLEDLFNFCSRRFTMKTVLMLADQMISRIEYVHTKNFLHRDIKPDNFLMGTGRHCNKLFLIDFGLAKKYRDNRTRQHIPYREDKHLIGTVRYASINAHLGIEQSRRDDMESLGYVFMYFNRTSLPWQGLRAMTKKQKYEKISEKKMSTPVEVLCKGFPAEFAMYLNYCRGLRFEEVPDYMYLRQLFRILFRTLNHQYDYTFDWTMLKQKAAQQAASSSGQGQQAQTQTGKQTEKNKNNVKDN
# Sequence of CDC42BPA (human) (Q5VT25 whole entry, looked up): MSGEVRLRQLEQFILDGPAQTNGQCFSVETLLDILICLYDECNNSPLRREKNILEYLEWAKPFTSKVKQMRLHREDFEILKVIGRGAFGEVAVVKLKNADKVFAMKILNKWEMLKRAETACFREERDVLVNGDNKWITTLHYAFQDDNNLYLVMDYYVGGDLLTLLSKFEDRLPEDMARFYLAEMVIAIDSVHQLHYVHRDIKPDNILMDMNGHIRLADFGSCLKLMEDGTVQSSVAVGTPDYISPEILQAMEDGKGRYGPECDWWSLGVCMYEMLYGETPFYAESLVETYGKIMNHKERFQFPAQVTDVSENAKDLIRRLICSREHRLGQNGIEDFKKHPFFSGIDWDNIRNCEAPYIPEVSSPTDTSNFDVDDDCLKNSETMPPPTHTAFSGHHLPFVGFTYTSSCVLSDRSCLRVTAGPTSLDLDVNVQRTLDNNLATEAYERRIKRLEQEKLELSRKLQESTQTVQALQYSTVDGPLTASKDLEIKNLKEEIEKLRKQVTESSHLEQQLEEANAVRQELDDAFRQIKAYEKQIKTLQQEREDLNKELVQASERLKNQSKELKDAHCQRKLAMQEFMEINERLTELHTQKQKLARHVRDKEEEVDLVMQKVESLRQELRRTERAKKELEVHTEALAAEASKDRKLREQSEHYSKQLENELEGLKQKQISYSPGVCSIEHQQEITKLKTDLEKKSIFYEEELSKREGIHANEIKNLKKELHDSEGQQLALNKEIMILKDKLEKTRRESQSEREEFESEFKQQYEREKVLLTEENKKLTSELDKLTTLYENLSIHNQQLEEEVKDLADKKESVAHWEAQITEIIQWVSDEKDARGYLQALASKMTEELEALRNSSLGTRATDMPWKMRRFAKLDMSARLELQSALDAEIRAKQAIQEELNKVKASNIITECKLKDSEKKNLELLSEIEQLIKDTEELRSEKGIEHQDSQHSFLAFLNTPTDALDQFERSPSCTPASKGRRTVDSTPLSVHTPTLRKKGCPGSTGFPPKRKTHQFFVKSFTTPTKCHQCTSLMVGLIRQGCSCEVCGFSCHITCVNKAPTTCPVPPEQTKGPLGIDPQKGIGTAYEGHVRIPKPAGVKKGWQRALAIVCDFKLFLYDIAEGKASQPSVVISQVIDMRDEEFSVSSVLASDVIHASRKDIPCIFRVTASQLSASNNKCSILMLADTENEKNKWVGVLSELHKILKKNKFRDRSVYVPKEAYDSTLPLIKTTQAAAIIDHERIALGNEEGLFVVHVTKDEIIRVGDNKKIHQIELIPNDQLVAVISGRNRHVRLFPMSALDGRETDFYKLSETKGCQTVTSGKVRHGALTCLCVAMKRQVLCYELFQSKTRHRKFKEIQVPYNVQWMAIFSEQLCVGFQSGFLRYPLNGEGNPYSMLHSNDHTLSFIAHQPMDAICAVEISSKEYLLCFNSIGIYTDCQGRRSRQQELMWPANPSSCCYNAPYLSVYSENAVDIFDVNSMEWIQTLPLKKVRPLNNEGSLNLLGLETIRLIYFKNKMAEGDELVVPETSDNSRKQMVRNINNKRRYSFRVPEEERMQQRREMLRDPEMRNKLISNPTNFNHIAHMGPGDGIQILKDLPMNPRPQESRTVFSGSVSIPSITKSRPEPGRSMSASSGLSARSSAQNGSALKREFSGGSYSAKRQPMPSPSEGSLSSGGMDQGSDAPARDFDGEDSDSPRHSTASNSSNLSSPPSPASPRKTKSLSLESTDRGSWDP
# Sequence of EIF2AK4 KD2 (human), Q9P2K8 [S808G] (Q9P2K8 whole entry S808G, looked up): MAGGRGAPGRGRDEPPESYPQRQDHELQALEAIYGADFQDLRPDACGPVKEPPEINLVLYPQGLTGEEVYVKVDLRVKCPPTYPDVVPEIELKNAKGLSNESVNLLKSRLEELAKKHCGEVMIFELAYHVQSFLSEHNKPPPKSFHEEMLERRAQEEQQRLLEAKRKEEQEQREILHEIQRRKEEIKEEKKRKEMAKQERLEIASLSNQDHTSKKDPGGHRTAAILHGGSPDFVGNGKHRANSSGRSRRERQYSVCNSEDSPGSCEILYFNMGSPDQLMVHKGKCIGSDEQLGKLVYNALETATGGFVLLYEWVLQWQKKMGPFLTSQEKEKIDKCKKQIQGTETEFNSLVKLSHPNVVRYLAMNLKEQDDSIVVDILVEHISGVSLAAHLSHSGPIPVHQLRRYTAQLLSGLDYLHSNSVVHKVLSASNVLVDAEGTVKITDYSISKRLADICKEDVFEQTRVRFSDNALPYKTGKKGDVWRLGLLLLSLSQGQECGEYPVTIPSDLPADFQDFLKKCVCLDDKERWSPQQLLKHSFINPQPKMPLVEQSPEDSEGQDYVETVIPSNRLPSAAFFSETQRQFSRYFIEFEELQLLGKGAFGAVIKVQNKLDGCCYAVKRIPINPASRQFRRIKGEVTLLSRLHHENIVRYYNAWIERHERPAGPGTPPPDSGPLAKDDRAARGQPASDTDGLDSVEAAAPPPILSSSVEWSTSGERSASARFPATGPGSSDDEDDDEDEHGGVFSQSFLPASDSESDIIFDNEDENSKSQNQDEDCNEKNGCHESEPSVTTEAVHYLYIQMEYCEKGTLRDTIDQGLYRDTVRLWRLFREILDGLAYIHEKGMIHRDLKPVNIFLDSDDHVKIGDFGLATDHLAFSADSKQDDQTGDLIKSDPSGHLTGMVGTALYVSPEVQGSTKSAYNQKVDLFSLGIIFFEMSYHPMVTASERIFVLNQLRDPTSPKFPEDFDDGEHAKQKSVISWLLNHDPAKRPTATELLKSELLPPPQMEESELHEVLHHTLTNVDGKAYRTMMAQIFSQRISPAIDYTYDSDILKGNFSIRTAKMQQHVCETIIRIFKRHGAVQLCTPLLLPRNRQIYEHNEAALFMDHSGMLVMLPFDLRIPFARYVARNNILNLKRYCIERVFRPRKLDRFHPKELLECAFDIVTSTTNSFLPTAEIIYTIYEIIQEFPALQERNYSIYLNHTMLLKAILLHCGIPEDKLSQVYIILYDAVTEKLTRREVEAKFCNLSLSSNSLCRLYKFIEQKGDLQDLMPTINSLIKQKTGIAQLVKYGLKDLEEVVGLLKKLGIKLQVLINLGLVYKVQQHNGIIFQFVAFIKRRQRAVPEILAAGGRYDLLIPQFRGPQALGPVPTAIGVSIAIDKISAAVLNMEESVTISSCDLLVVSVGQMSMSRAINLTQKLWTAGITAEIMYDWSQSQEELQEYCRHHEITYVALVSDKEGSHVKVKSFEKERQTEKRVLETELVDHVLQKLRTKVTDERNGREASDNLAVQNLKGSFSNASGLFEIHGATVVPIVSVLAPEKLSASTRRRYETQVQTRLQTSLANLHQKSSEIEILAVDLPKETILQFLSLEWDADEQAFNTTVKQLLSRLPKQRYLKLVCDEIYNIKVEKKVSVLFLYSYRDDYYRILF
# Sequence of PIM2 (human) (Q9P1W9 whole entry, looked up): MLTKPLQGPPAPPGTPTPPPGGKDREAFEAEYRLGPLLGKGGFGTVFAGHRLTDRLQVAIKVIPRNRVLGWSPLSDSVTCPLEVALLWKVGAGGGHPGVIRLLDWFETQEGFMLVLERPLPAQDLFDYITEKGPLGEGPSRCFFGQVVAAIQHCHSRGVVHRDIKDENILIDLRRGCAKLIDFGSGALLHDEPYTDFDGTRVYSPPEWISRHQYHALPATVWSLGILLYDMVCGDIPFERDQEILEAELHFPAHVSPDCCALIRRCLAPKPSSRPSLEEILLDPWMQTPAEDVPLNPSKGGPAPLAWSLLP
# Sequence of CDK14 (human) (O94921 whole entry, looked up): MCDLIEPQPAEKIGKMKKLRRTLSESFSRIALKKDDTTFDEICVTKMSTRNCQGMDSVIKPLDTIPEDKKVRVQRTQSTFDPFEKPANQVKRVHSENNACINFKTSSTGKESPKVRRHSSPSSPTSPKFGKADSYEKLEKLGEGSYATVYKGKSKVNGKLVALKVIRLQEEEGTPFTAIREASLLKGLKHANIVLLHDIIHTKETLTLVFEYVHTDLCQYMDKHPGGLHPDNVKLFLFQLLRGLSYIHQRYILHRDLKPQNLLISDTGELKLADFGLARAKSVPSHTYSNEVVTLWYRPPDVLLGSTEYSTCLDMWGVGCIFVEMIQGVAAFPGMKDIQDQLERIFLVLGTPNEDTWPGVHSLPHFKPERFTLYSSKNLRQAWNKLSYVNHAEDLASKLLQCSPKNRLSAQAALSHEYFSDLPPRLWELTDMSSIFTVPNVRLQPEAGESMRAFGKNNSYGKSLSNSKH
# Sequence of YES1 (human) (P07947 whole entry, looked up): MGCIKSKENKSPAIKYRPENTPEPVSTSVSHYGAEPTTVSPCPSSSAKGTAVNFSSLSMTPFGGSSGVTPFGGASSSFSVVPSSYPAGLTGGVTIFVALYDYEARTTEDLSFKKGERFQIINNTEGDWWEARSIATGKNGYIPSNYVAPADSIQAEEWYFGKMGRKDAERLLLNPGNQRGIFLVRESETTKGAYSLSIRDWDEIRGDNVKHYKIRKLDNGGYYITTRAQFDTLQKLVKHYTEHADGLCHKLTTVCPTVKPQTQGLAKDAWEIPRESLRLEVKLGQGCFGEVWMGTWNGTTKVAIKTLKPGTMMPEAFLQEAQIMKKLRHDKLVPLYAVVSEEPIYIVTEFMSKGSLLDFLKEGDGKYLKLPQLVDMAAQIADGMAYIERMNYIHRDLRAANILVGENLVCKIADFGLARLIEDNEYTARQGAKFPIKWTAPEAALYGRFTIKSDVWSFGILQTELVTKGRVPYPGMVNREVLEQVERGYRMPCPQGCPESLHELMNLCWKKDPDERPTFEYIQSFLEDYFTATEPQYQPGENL
SMILES,"kinase still bound, per cent of control (LIMK1 (human))","kinase still bound, per cent of control (SRPK2 (human))","kinase still bound, per cent of control (CDC42BPA (human))","kinase still bound, per cent of control (EPHA8 (human))","kinase still bound, per cent of control (MAP4K1 (human))","kinase still bound, per cent of control (FGFR3 (human))","kinase still bound, per cent of control (CDK14 (human))","kinase still bound, per cent of control (PAK3 (human))","kinase still bound, per cent of control (NTRK3 (human))","kinase still bound, per cent of control [1]","kinase still bound, per cent of control (MAP3K4 (human))","kinase still bound, per cent of control (MAPK14 (human))","kinase still bound, per cent of control (DAPK3 (human))","kinase still bound, per cent of control (SRPK1 (human))","kinase still bound, per cent of control (MAP3K10 (human))","kinase still bound, per cent of control (MARK3 (human))","kinase still bound, per cent of control (MAPK3 (human))","kinase still bound, per cent of control (HCK (human))","kinase still bound, per cent of control (YES1 (human))","kinase still bound, per cent of control (PIM2 (human))",other results
COc1cc(C(=O)NC2CCN(C)CC2)ccc1Nc1ncc2c(n1)N(C1CCCC1)C(C)CC(=O)N2C (centres undefined),100%,100%,100%,100%,100%,100%,100%,100%,100%,100%,100%,100%,17%,100%,100%,100%,100%,100%,100%,100%,"kinase still bound, per cent of control (BTK (human)): 100%; kinase still bound, per cent of control (BRSK1 (human)): 100%; kinase still bound, per cent of control [2]: 100%; kinase still bound, per cent of control (GAK (human)): 3.8%; kinase still bound, per cent of control (TNK2 (human)): 100%; kinase still bound, per cent of control (CSNK1A1L (human)): 100%; kinase still bound, per cent of control (MAP4K3 (human)): 100%; kinase still bound, per cent of control (CAMK2B (human)): 100%; kinase still bound, per cent of control (LIMK2 (human)): 100%; kinase still bound, per cent of control (PHKG2 (human)): 100%; kinase still bound, per cent of control (BLK (human)): 100%; kinase still bound, per cent of control (CaMK1 (human)): 100%; kinase still bound, per cent of control (RPS6KA4 KD1 (human)): 100%"
CC[C@@H]1C(=O)N(C)c2cnc(Nc3ccc(C(=O)NC4CCN(C)CC4)cc3OC)nc2N1C1CCCC1,100%,100%,100%,100%,100%,100%,100%,100%,100%,100%,100%,100%,3.6%,100%,100%,100%,100%,100%,100%,100%,"kinase still bound, per cent of control (BRSK1 (human)): 100%; kinase still bound, per cent of control [2]: 100%; kinase still bound, per cent of control (GAK (human)): 1.6%; kinase still bound, per cent of control (TNK2 (human)): 100%; kinase still bound, per cent of control (CSNK1A1L (human)): 100%; kinase still bound, per cent of control (MAP4K3 (human)): 100%; kinase still bound, per cent of control (LIMK2 (human)): 100%; kinase still bound, per cent of control (PHKG2 (human)): 20%; kinase still bound, per cent of control (CaMK1 (human)): 100%; kinase still bound, per cent of control (RPS6KA4 KD1 (human)): 100%"
Cc1ccc(C(=O)Nc2cccc(C(F)(F)F)c2)cc1Nc1cncc(C(N)=O)c1,100%,100%,100%,0.35%,100%,100%,100%,100%,15%,100%,100%,5%,100%,100%,100%,100%,100%,100%,100%,100%,"kinase still bound, per cent of control (BTK (human)): 100%; kinase still bound, per cent of control (BRSK1 (human)): 100%; kinase still bound, per cent of control [2]: 100%; kinase still bound, per cent of control (GAK (human)): 100%; kinase still bound, per cent of control (TNK2 (human)): 100%; kinase still bound, per cent of control (CSNK1A1L (human)): 100%; kinase still bound, per cent of control (MAP4K3 (human)): 100%; kinase still bound, per cent of control (CAMK2B (human)): 100%; kinase still bound, per cent of control (LIMK2 (human)): 100%; kinase still bound, per cent of control (PHKG2 (human)): 100%; kinase still bound, per cent of control (BLK (human)): 100%; kinase still bound, per cent of control (CaMK1 (human)): 100%; kinase still bound, per cent of control (RPS6KA4 KD1 (human)): 100%"
C=CC(=O)Nc1cccc(Oc2nc(Nc3ccc(N4CCN(C)CC4)cc3OC)ncc2Cl)c1,100%,100%,100%,100%,34%,100%,100%,100%,100%,0.35%,100%,100%,7.4%,21%,100%,7.8%,100%,100%,100%,100%,"kinase still bound, per cent of control (BTK (human)): 0.1%; kinase still bound, per cent of control (BRSK1 (human)): 100%; kinase still bound, per cent of control [2]: 100%; kinase still bound, per cent of control (GAK (human)): 0.45%; kinase still bound, per cent of control (TNK2 (human)): 18%; kinase still bound, per cent of control (CSNK1A1L (human)): 100%; kinase still bound, per cent of control (MAP4K3 (human)): 29%; kinase still bound, per cent of control (CAMK2B (human)): 100%; kinase still bound, per cent of control (LIMK2 (human)): 100%; kinase still bound, per cent of control (PHKG2 (human)): 3.5%; kinase still bound, per cent of control (BLK (human)): 0.75%; kinase still bound, per cent of control (CaMK1 (human)): 100%; kinase still bound, per cent of control (RPS6KA4 KD1 (human)): 100%"
